According to patent publication US8617906B2, “Identification and screening of triptolide target molecules” (priority 2004, dated 2013):

Experiments:
[1] = target: T1, Hypothetical Protein—GI 7705346 (PG790) (Homo sapiens, UniProt Q9Y4R8); test: Isolation of proteins binding 3H-triptolide in Jurkat cells; settings: 3H-labeled Jurkat cell extract
T1 construct: Jurkat cells from expanding cultures were labeled with; endogenous in cells; host or cells: Jurkat
Experimental: (§1) Triptolide target molecules were isolated and identified by purification and identification of molecules that bind ^3H-triptolide. Jurkat cells from expanding cultures were labeled with ^3H-triptolide by cultivation at 37° C. with 5% CO2 for a period of time between a few hours and overnight (usually 6-7 hours) and harvested by centrifugation and washing in ice-cold phosphate buffered saline. The cells (usually 1-3×10^6/ml) were generally labeled with ^3H-triptolide to a final concentration of 35 nM (100 μCi/200 ml of medium). Collected cell pellets were pooled, and the cells were either extracted and subjected to separation and purification at that time, or were frozen and stored at −20° C. as pellets for extraction and investigation at a later time.
(§2) The cells were extracted with M-per buffer (Pierce) and homogenized in presence of a protease inhibitor cocktail, sometimes including other reagents such as deoxyribonuclease (DNase). […] When the extracts components were found not to be sufficiently purified, enriched or reduced in number, 2D gel electrophoresis was employed, followed by fluorography for ^3H-associated radioactivity detection, and MALDI/MS of the corresponding peptides (after proteolysis) and peptide fingerprinting. […]

[2] = system: microglia; settings: cited from earlier work
[3] = target: T2, Human Serine/Threonine Protein Phosphatase 2A 130 KDa regulatory subunit, PP2A (PG789) (Homo sapiens, UniProt Q06190); test: Isolation of proteins binding 3H-triptolide in Jurkat cells; settings: 3H-labeled Jurkat cell extract
T2 construct: endogenous in cells; host or cells: Jurkat
Experimental: as §1, §2

[4] = system: Phosphatidyl Inositol 3 Kinase—Class II (PG776); test: as above; design: species or system human; settings: 3H-labeled Jurkat cell extract
Experimental: as §1, §2

T2 sequence (Q06190 whole entry): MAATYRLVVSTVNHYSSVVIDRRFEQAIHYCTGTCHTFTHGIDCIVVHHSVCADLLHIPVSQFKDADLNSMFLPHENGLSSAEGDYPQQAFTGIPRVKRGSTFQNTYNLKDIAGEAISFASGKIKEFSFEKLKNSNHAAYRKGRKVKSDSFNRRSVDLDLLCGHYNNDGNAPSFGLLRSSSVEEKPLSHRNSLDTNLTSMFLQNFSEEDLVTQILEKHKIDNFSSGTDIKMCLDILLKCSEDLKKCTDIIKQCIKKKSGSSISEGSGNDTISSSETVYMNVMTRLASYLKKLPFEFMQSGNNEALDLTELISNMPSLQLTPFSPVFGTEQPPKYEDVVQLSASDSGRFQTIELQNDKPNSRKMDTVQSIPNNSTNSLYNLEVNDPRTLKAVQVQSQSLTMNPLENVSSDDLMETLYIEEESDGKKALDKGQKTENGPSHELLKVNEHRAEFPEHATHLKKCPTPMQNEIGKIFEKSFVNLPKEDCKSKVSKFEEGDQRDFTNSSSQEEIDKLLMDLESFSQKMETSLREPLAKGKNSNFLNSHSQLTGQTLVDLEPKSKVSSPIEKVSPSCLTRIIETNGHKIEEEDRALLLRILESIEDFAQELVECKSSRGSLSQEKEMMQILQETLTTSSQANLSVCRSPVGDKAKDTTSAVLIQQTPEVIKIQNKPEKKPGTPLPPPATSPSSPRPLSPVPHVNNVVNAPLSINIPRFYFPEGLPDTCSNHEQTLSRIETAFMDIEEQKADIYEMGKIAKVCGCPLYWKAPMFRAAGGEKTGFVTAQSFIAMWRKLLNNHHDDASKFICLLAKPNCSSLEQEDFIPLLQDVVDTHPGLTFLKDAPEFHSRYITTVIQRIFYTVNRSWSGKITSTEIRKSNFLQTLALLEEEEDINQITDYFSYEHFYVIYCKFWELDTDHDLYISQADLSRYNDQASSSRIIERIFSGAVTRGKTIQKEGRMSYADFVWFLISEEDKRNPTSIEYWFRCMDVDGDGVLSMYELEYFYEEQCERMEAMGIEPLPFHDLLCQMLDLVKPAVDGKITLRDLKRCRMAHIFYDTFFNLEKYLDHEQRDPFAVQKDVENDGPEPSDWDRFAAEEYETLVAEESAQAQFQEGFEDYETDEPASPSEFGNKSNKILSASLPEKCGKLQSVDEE
T1 sequence (Q9Y4R8 whole entry): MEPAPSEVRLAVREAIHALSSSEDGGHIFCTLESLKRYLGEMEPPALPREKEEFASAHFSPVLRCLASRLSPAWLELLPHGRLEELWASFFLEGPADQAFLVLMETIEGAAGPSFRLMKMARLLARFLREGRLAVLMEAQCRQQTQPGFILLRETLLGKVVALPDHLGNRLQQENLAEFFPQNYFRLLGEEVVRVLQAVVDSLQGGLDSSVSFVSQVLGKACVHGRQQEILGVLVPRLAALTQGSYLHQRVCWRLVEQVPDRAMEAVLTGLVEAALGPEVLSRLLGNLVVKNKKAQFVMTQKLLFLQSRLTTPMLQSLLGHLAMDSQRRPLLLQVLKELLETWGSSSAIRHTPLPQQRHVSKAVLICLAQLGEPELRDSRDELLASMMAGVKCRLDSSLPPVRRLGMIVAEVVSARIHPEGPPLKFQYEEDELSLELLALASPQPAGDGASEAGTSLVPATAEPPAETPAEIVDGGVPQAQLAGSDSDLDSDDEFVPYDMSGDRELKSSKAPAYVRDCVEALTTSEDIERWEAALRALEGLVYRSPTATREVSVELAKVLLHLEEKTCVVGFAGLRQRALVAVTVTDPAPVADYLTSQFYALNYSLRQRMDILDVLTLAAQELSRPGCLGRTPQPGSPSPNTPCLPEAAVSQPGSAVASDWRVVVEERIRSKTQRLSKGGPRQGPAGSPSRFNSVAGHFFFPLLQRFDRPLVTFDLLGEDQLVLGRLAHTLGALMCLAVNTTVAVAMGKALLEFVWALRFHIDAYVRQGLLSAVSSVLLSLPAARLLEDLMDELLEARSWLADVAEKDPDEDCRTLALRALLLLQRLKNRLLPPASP

## CC(C)[C@]12O[C@H]1[C@@H]1O[C@]13[C@]1(O[C@H]1C[C@H]1C4=C(CC[C@@]13C)C(=O)OC4)[C@@H]2O [triptolide]
[1]
  3H-associated protein identified as triptolide target: GI 7705346: identified
[2]
  LPS-activated microglial activity (nitrite accumulation, TNF-α and IL-1β release): powerful inhibitory influence
[3]
  3H-associated protein identified as triptolide target: PP2A 130 KDa regulatory subunit: identified
[4]
  3H-associated protein identified as triptolide target: PI 3 Kinase Class II: identification
